Assay results as given in paper PMC4700268 (Frontiers in Pharmacology, 2016).
Values joined by “and” are separate entries in the source; they are usually repeats but may differ in a detail not shown here. Equal entries are not always repeated.

Columns and labels:
[1] = target: T1, hOCT2 (Homo sapiens, UniProt O15244); assay: Inhibition of [3H]MPP+ uptake in hOCT2 transfected MDCK II cells; assay type: in vitro ADME; conditions: 1 μM [3H]MPP+, ETV 0–2000 μM, 2 min
T1 construct: host or cells: MDCK II cells, transient transfection
T1 sequence (O15244 1-555): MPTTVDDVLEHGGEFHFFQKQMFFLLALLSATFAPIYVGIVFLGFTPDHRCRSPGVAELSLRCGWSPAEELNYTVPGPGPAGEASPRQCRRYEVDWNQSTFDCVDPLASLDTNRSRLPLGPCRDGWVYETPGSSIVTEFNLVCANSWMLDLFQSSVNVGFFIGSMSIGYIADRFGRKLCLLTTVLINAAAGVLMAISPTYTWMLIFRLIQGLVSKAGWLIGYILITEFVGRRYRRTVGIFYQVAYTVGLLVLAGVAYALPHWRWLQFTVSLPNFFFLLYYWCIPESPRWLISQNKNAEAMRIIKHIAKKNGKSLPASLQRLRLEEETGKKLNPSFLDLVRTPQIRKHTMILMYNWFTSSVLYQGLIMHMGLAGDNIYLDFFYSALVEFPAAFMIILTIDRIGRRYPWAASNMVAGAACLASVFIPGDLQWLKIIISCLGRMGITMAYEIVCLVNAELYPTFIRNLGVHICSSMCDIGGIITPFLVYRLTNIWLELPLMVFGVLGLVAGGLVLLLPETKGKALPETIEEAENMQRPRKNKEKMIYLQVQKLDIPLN
Procedure: Inhibitory transport assays were carried out in 24-well plates as described previously ([Mandikova et al., 2013]). Transport assays in HeLa cells transiently transfected with the hOAT1 expression construct were performed 48 h after transfection. Transport assays in MDCK II cells transiently transfected with hOCT2, hCNT2 or hCNT3 were performed 24 h after transfection. The cultivation medium was removed and the cells were washed with transport solution and preincubated for 10 min at 37°C. The standard radiolabeled substrate or tested radioactive antiviral substance dissolved in transport solution was added to the cells and incubated for 2 min. […] After the designated time period, the incubation was stopped by washing the cells twice with ice-cold solution containing 137 mM NaCl and 10 mM HEPES, pH 7.4. The cells were disintegrated with 0.1 mL of Triton X 0.5% in 100 mM NaOH for 1 h. […] IC50 values were calculated using non-linear regression analysis using GraphPad Prism software (version 6).

[2] = tested on: MDCK II cells transiently transfected with hCNT2; assay: MTS cell viability assay in hCNT2 transfected MDCK II cells; assay type: cell-based, canine; conditions: 24 h, 250–1000 μM, hCNT2 vs empty vector MDCK II cells
Procedure: The controls were prepared simultaneously.

[3] = ref Matthews, 2006, Yan et al.; cited from earlier work
[4] = target: T2, hOAT1 (Homo sapiens, UniProt Q4U2R8); design: host or cells: HeLa cells, transient transfection; method as in Xu et al., 2013; conditions: ref Xu et al., 2013; read-out: Km for hOAT1, previously published; cited from earlier work
T2 sequence (Q4U2R8 1-563): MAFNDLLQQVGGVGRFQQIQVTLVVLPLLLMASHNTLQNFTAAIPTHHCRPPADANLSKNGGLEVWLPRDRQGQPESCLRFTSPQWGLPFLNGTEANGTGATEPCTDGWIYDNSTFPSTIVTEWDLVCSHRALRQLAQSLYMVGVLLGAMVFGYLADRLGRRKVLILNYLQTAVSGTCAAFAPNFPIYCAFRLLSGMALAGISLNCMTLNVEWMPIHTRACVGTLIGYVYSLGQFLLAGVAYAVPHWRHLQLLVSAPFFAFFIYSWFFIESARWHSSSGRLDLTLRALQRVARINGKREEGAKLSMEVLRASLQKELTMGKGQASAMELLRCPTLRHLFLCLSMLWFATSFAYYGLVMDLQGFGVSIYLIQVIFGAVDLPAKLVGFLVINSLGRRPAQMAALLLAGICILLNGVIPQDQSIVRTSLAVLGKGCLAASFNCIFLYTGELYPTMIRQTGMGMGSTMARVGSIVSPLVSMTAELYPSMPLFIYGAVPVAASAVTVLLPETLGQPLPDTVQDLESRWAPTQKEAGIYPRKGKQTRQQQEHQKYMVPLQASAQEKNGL

[5] = Urinary excretion of ETV and estimated concentration in final urine; assay type: in vivo; conditions: 1 mg dose, 24 h-urinary volume of 1 L

## C=C1[C@H](CO)[C@@H](O)C[C@@H]1n1cnc2c(=O)[nH]c(N)nc21 [ETV, Entecavir]
[1]
  Inhibitory interaction with hOCT2: No interaction
[2]
  Effect of hCNT2 expression on cytotoxicity: did not prove any significant increase in cytotoxicity
[3]
  Therapeutic concentrations in plasma following regular doses: below 50 nM
[4]
  Km: 250 µM
[5]
  Estimated concentration in the final urine: approximately 700 μg/L and ~2.5 μM
